Test [1] concerns children with autistic behavior. Briefly: Stool consistency / gastrointestinal symptoms after endoscopy and secretin injection. The format is in vivo, human. From the text:
The specific procedures were as follows.

Test [2] shares this test system. The test is described as follows: Pancreatic stimulation with secretin during upper gastrointestinal endoscopy, collection of pancreatico-biliary fluid. The format is in vivo, human. The procedure:
After fasting from midnight, upper gastrointestinal endoscopies were carried out the next morning under general anesthesia. All gastric juice was aspirated before passing the endoscope into the duodenum. The pancreatico-biliary juice was collected after positioning the endoscope distal to the ampulla of Vater. An ERCP catheter was placed into the channel of endoscope and the fluid was collected by moving the tip into the outcoming fluid and suctioning it into a syringe. The pancreas was then stimulated with secretin 2 IU/kg BW (Ferring Laboratories, Inc. Suffern, NY, USA) given intravenously within a minute. Three additional specimens were collected after the secretin injection within a 10-minute period. Blood samples were collected prior to and 10 minutes after secretin stimulation. In a subgroup of children, the effect of duodenal acidification was determined by measurement of blood secretin levels before and 4–5 minutes after washing the second part of the duodenum with 0.05M hydrochloric acid for 5 minutes. At the end of the procedure, biopsies were obtained of the small intestine, esophagus and stomach.
The volume of secreted fluid was calculated as ml/min and the aspirated juice analyzed for pH, protein (mg/ml; Bio-Rad protein assay), and for enzymes (amylase, trypsin, lipase, chymotrypsin, and carboxypeptidase A and B). These enzyme assays were modified by us and run regularly in our certified Clinical Laboratory. An aliquot of collected fluid was sent for bacterial and fungal culture. Intestinal biopsy specimens were homogenized in ice-cold distilled water and the activities of lactase, maltase, sucrase, palatinase and glucoamylase were measured using the Dahlquist intestinal disaccharidases assay [Dahlquist, Anal. Biochem. 22:99–107 (1968); Azad M, Pediatr Res, 1990;28: 166–170 (1990)]. The normal values were established based on measurements of histological normal intestinal biopsy tissues (n=104) at the University of Maryland. In our practice, digestive enzyme activities below the established 3d percentile values are considered abnormal.

In the next test the test system is rats. Particulars: ICV; cited from earlier work.

Entries after “also recorded” stand apart in the source; their conditions may differ.

Turning to secretin, the chronic diarrhea entry in test [1] (Case 1, within three weeks after the procedure) is given as “their chronic diarrhea resolved; also recorded: His chronic diarrhea resolved”. The chronic diarrhea result in test [1] (Case 3) is recorded as “His chronic diarrhea resolved”. Further, the “duration of stool improvement” value in test [1] (seven children with chronic loose stools) is on record as “In five children this improvement was permanent”. For the same substance, the consistency of stools result in test [1] (seven children with chronic loose stools, after endoscopy and secretin injection) is given as “all of them had an improvement in the consistency of stools”. Further, the pancreatic secretory response in test [2] (Case 1, after 2 IU/kg BW of secretin) worked out at 10 mL/min. The “secretory response after secretin administration” value in test [2] (Case 2, 2 IU/kg body weight of secretin) amounted to 7.5 mL/min. Also, in test [2] (Case 3), the “pancreato-biliary response to secretin, output” value amounted to 8 mL/min. In addition, the Pancreatic secretion entry in test [2] (Group I (chronic loose stools/diarrhea)) is listed as “Increased (>5 ml/min)”. Also, the Pancreatic secretion result in test [2] (Group II (no diarrhea)) was “Normal (<4 ml/min)”. For the same substance, the “pancreato-biliary secretory response compared to non-autistic patients” value in test [2] (all children, after secretin injection) is “extensive pancreato-biliary secretory response”. In addition, the “highest rate of secretion” value in test [2] (in one child) worked out at 10 mL/min. Moreover, in test [2] (six out of 7 autistic patients who had chronic loose stools), the pancreatico-biliary secretion rates result was “above 5 ml/min”. In the test on rats, the defecation entry is given as “significantly increased”, the novel-object approaches entry is reported as “decreased” and the stereotypic behavior entry was “no significant effects”.

The values are drawn from patent publication US7091182B2, “Method for assisting in differential diagnosis and treatment of autistic syndromes” (Repligen Corporation, priority 1997, dated 2006).
